Activity calls are given as the source filed them. No rule for the calls is given here.
Tested on: rodent carcinogenicity bioassays, tumor incidence
Test: CCRIS carcinogenicity studies
How it was run: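 Archive of carcinogenicity, mutagenicity, tumor promotion and tumor inhibition results drawn from journals, NCI reports and other sources, expert-reviewed; covers 1985-2011 and is no longer updated.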

## C=C1C[C@@]23CC[C@H]4[C@@](C)(CCC[C@@]4(C)C(=O)O[C@@H]4O[C@H](CO)[C@@H](O)[C@H](O)[C@H]4O)[C@@H]2CC[C@]1(O[C@@H]1O[C@H](CO)[C@@H](O)[C@H](O)[C@H]1O[C@@H]1O[C@H](CO)[C@@H](O)[C@H](O)[C@H]1O)C3
Species: RAT, Strain/Sex: F344/FEMALE, Route: ORAL, Dose: 0, 2.5, 5% IN DIET FOR 104 WK (STUDY DURATION: 108 WK), Dose: 0, 2.5, 5% IN DIET FOR 104 WK (STUDY DURATION: 108 WK)
  carcinogen call: inactive; negative
Species: RAT, Strain/Sex: F344/MALE, Route: ORAL, Dose: 0, 2.5, 5% IN DIET FOR 104 WK (STUDY DURATION: 108 WK), Dose: 0, 2.5, 5% IN DIET FOR 104 WK (STUDY DURATION: 108 WK)
  carcinogen call: inactive; negative
Species: RAT, Strain/Sex: WISTAR/FEMALE, Route: ORAL, Dose: 0, 0.2, 0.6%, 1.2% IN DIET FOR 24 MO (STUDY DURATION: 24 MO), Dose: 0, 0.2, 0.6%, 1.2% IN DIET FOR 24 MO (STUDY DURATION: 24 MO)
  carcinogen call: inactive; negative
Species: RAT, Strain/Sex: WISTAR/MALE, Route: ORAL, Dose: 0, 0.2, 0.6, 1.2% IN DIET FOR 24 MO (STUDY DURATION: 24 MO), Dose: 0, 0.2, 0.6, 1.2% IN DIET FOR 24 MO (STUDY DURATION: 24 MO)
  carcinogen call: inactive; negative

## Nc1nc2c(ncn2[C@@H]2C[C@H](CO)[C@H]2CO)c(=O)[nH]1
Species: Mouse, Strain/Sex: CD-1/Female (60/Group), Route: Oral, Dose: 0, 30, 150, 750 mg/kg in diet for 104 wk, Dose: 0, 30, 150, 750 mg/kg in diet for 104 wk, Tumor Site: Type of Lesion: Upper digestive tract: squamous cell papilloma and carcinoma (0/60 and 0/60 in controls vs 0/60, 3/60, and 4/60, respect
  carcinogen call: active; positive
Species: Mouse, Strain/Sex: CD-1/Male (60/Group), Route: Oral, Dose: 0, 10, 50, 250 mg/kg in diet for 104 wk, Dose: 0, 10, 50, 250 mg/kg in diet for 104 wk, Tumor Site: Type of Lesion: Upper digestive tract: squamous cell papilloma or carcinoma (0/60 and 0/60 in controls vs 0/60, 3/60, and 4/60, respecti
  carcinogen call: active; positive

## CCCCOC(=O)[C@@H](C)Oc1ccc(Oc2ccc(C#N)cc2F)cc1
Species: Mouse, Strain/Sex: ICR (Crj:CD-1)/(Male (52/group), Route: Oral, Dose: 0, 3, 10, 100 ppm (0; 0.31; 0.99; 10.1 mg/kg/day) of 97.1% pure cyhalofop-butyl in diet for 78 wk, Dose: 0, 3, 10, 100 ppm (0; 0.31; 0.99; 10.1 mg/kg/day) of 97.1% pure cyhalofop-butyl in diet for 78 wk
  carcinogen call: inactive; negative
Species: Mouse, Strain/Sex: ICR (Crj:CD-1)/Female (52/group), Route: Oral, Dose: 0, 3, 10, 100 ppm (0; 0.29; 0.99; 10.3 mg/kg/day) of 97.1% pure cyhalofop-butyl in diet for 78 wk, Dose: 0, 3, 10, 100 ppm (0; 0.29; 0.99; 10.3 mg/kg/day) of 97.1% pure cyhalofop-butyl in diet for 78 wk
  carcinogen call: inactive; negative

## CCC(C)n1c(=O)[nH]c(C)c(Br)c1=O (configuration not stated)
Species: Mouse, Strain/Sex: CD-1/Female (80/sex/dose), Route: Oral, Dose: 0, 250, 1250, 5000 ppm in diet for 18 mo, Dose: 0, 250, 1250, 5000 ppm in diet for 18 mo
  carcinogen call: inactive; negative; purity 95%
Species: Mouse, Strain/Sex: CD-1/Male (80/sex/dose), Route: Oral, Dose: 0, 250, 1250, 5000 ppm in diet for 18 mo, Dose: 0, 250, 1250, 5000 ppm in diet for 18 mo, Tumor Site: Type of Lesion: Liver: significant increase in combined hepatocellular adenomas and carcinomas at highest dose, liver lesions (neoplasti
  carcinogen call: active; positive: purity 95%
Species: Rat, Strain/Sex: Crl:CD (BR)/Female (62/sex/group), Route: Oral, Dose: 0, 50, 250, 2500 ppm in diet for 2 yr, Dose: 0, 50, 250, 2500 ppm in diet for 2 yr
  carcinogen call: inactive; negative (mtd may have been exceeded); purity: 95-99%
Species: Rat, Strain/Sex: Crl:CD (BR)/Male (62/sex/group), Route: Oral, Dose: 0, 50, 250, 2500 ppm in diet for 2 yr, Dose: 0, 50, 250, 2500 ppm in diet for 2 yr
  carcinogen call: inactive; negative (mtd may have been exceeded); purity: 95-99%

## O=C(NCC1CCCCN1)c1cc(OCC(F)(F)F)ccc1OCC(F)(F)F (configuration not stated)
Species: MOUSE, Strain/Sex: CD-1/MALE,FEMALE, Route: ORAL, Dose: 15, 30, 60 MG/KG/DAY IN DIET FOR 18 MO, Dose: 15, 30, 60 MG/KG/DAY IN DIET FOR 18 MO
  carcinogen call: inactive; negative
Species: RAT, Strain/Sex: WISTAR/MALE,FEMALE, Route: ORAL, Dose: 15, 30, 60 MG/KG/DAY IN DIET FOR 24 MO, Dose: 15, 30, 60 MG/KG/DAY IN DIET FOR 24 MO
  carcinogen call: inactive; negative

## CCN(CC)C(=S)S
Species: MOUSE, Strain/Sex: B6C3F1/FEMALE, Route: ORAL, Dose: 0, 500, 4000 PPM IN DIET, Dose: 0, 500, 4000 PPM IN DIET
  carcinogen call: inactive; negative
Species: MOUSE, Strain/Sex: B6C3F1/MALE, Route: ORAL, Dose: 0, 500, 4000 PPM IN DIET, Dose: 0, 500, 4000 PPM IN DIET
  carcinogen call: inactive; negative
Species: RAT, Strain/Sex: F344/FEMALE, Route: ORAL, Dose: 0, 1250, 2000 PPM IN DIET, Dose: 0, 1250, 2000 PPM IN DIET
  carcinogen call: inactive; negative
Species: RAT, Strain/Sex: F344/MALE, Route: ORAL, Dose: 0, 1250, 2000 PPM IN DIET, Dose: 0, 1250, 2000 PPM IN DIET
  carcinogen call: inactive; negative

## C=CC(=C)Cl
Species: HAMSTER, Strain/Sex: SYRIAN/FEMALE, Route: INHALATION, Dose: 0, 10, 50 PPM 6 HR/D 5 D/WK FOR 18 MO (STUDY DURATION: 18 MO), Dose: 0, 10, 50 PPM 6 HR/D 5 D/WK FOR 18 MO (STUDY DURATION: 18 MO)
  carcinogen call: inactive; negative
Species: HAMSTER, Strain/Sex: SYRIAN/MALE, Route: INHALATION, Dose: 0, 10, 50 PPM 6HR/D 5 D/WK FOR 18 MO (STUDY DURATION: 18 MO), Dose: 0, 10, 50 PPM 6HR/D 5 D/WK FOR 18 MO (STUDY DURATION: 18 MO)
  carcinogen call: inactive; negative
Species: MOUSE, Strain/Sex: ALBINO/MALE, FEMALE, Route: INHALATION, Dose: 0, 2.9, 19.18, 189 MG/M3 4 HR/D 6 D/WK FOR 7 MO (STUDY DURATION: 8 MO), Dose: 0, 2.9, 19.18, 189 MG/M3 4 HR/D 6 D/WK FOR 7 MO (STUDY DURATION: 8 MO), Tumor Site: Type of Lesion: LUNG: TUMOR
  carcinogen call: active; positive
Species: MOUSE, Strain/Sex: B6C3F1/FEMALE, Route: INHALATION, Dose: 0, 12.8, 32, 80 PPM 6 HR/D 5 D/WK FOR 105 WK (STUDY DURATION: 106 WK), Dose: 0, 12.8, 32, 80 PPM 6 HR/D 5 D/WK FOR 105 WK (STUDY DURATION: 106 WK), Tumor Site: Type of Lesion: LUNG: ALVEOLAR/BRONCHIOLAR ADENOMA, ALVEOLAR/BRONCHIOLAR CARCINOMA, CIRCULATORY SYSTEM: HEMANGIOMA, HEMANGIOSARCOMA, HAR, Tumor Site: Type of Lesion: LUNG: ALVEOLAR/BRONCHIOLAR ADENOMA, ALVEOLAR/BRONCHIOLAR CARCINOMA, CIRCULATORY SYSTEM: HEMANGIOMA, HEMANGIOSARCOMA, HAR
  carcinogen call: active; positive
Species: MOUSE, Strain/Sex: B6C3F1/MALE, Route: INHALATION, Dose: 0, 12.8, 32, 80 PPM 6 HR/D 5 D/WK FOR 105 WK (STUDY DURATION: 106 WK), Dose: 0, 12.8, 32, 80 PPM 6 HR/D 5 D/WK FOR 105 WK (STUDY DURATION: 106 WK), Tumor Site: Type of Lesion: LUNG: ALVEOLAR/BRONCHIOLAR ADENOMA, ALVEOLAR/BRONCHIOLAR CARCINOMA, CIRCULATORY SYSTEM: HEMANGIOSARCOMA, HEMANGIOSARCOMA
  carcinogen call: active; positive
Species: RAT, Strain/Sex: F344/FEMALE, Route: INHALATION, Dose: 0, 12.8, 32, 80 PPM 6 HR/D 5 D/WK FOR 105 WK (STUDY DURATION: 106 WK), Dose: 0, 12.8, 32, 80 PPM 6 HR/D 5 D/WK FOR 105 WK (STUDY DURATION: 106 WK), Tumor Site: Type of Lesion: ORAL CAVITY: SQUAMOUS CELL PAPILLOMA, SQUAMOUS CELL PAPILLOMA OR CARCINOMA, THYROID GLAND: FOLLICULAR CELL ADENOMA OR CA
  carcinogen call: active; positive
Species: RAT, Strain/Sex: F344/MALE, Route: INHALATION, Dose: 0, 12.8, 32, 80 PPM 6 HR/D 5 D/WK FOR 105 WK (STUDY DURATION: 106 WK), Dose: 0, 12.8, 32, 80 PPM 6 HR/D 5 D/WK FOR 105 WK (STUDY DURATION: 106 WK), Tumor Site: Type of Lesion: ORAL CAVITY: SQUAMOUS CELL PAPILLOMA, SQUAMOUS PAPILLOMA OR CARCINOMA, THYROID GLAND: FOLLICULAR CELL ADENOMA OR CARCINO
  carcinogen call: active; positive
Species: RAT, Strain/Sex: WISTAR/FEMALE, Route: INHALATION, Dose: 0, 10, 50 PPM 6 HR/D 5D/WK FOR 24 MO AT 72 WK 73 FEMALE RATS IN LOW DOSE GROUP DIED DUE TO MALFUNCTION IN EXPOSURE APPAR, Dose: 0, 10, 50 PPM 6 HR/D 5D/WK FOR 24 MO AT 72 WK 73 FEMALE RATS IN LOW DOSE GROUP DIED DUE TO MALFUNCTION IN EXPOSURE APPAR
  carcinogen call: inactive; negative
Species: RAT, Strain/Sex: WISTAR/MALE, Route: INHALATION, Dose: 0, 10, 50 PPM 6 HR/D 5D/WK FOR 24 MO AT 72 WK 82 MALE RATS IN LOW DOSE GROUP DIED DUE TO MALFUNCTION IN EXPOSURE APPARAT, Dose: 0, 10, 50 PPM 6 HR/D 5D/WK FOR 24 MO AT 72 WK 82 MALE RATS IN LOW DOSE GROUP DIED DUE TO MALFUNCTION IN EXPOSURE APPARAT
  carcinogen call: inactive; negative

Source: PubChem BioAssay AID1259411 (Chemical Carcinogenesis Research Information System (CCRIS), 2018)
